# A melting point compilation (Tetko et al.; mined from patent text by program, amines drawn as free bases though some values may be those of a salt)
row,Structure (SMILES),melting point [°C]
1,COc1ccc2[nH]cc(/C(C#N)=C/c3ccn(C)n3)c2c1,178
2,CC(NC(=O)c1cccc([N+](=O)[O-])c1)C(F)(F)F (stereo not given),130 to 131
3,Cc1c(CO)oc2c(Br)cccc12,103
4,CC1=Nc2ccccc2CC(c2ccc(C)s2)N1C (stereo not given),139 to 140
5,CC(C)c1nc(C(C)C)c(CNC2CC2)c(-c2ccc(F)cc2)c1CO,81 to 83
6,Cc1cc(C)c(Cc2ccc(C(C)C)cc2)c(OCC(=O)O)c1,104 to 105
7,NS(=O)(=O)c1cc(Br)c2c(c1)S(=O)(=O)NC(C1CCCCC1)N2 (stereo not given),254 to 258
8,O=C(O)C1=Cc2cc(S(=O)(=O)Cc3ccccc3)ccc2OC1C(F)(F)F (stereo not given),172 to 176
9,Nc1ccc2c(c1)C(=O)NC(C(Cl)(Cl)Cl)O2 (stereo not given),172 to 174
10,N#Cc1ccc([C@H]2[C@@H]3C(=O)N(Cc4ccc5c(c4)OCO5)C(=O)[C@@H]3[C@@H]3CSCN32)cc1 (racemic),142 to 143
11,CCOC(=O)NCC(CC)C(NC(=O)OCC)NC(=O)OCC (stereo not given),120 to 122
12,CCOC(=O)c1cccc(NC(=O)C(CO)NS(=O)(=O)c2ccc(Cl)cc2)c1 (racemic),142 to 144
13,ClC(=NNc1ccccc1)c1ccc(Br)cc1,152 to 153
14,Nc1cc(Cl)ccc1C(=O)NCC1CCN(C(c2ccccc2)c2ccccc2)CC1,161 to 162
15,O=C(NCCO)/C(=C/c1ccc(C2CC2)cc1)NC(=O)c1ccc(OCCc2ccccc2)cc1,113 to 115
16,COC(=O)c1cccc2c1c1c(O)c3c(cc1n2Cc1ccccc1)CCCC3,174 to 176
17,COC(=O)c1ccc(CNC(=O)OCc2ccccc2)cc1OCc1ccccc1,106 to 107
18,CCOc1nc(C(=O)O)ccc1C#N,185 to 190
19,O=C(Nc1ccccc1)Nc1cccc(-c2ccc(CC34CCCN3C(=O)N(c3cc(Cl)cc(Cl)c3)C4=O)cc2)c1 (stereo not given),150
20,COc1ccc(S(=O)(=O)n2ccc3ccnc(-c4ccc(F)cc4)c32)cc1,136 to 137
21,NC(=O)c1cc(Cl)c(Cl)cc1C(=O)O,197 to 201
22,CCc1nc2c(c(C)c(C)n3nnnc23)n1CCOCCNC(=O)CCCCl,149 to 151
23,CC(=O)Nc1ccccc1N(CC(=O)OC(C)(C)C)C(=O)CNC(=O)Nc1cccc(C)c1,185
24,Nc1nc(Nc2ccc(S(N)(=O)=O)cc2)sc1C(=O)c1ccc(C(=O)O)cc1,298 to 300
25,COc1ccc(C(O)Cc2c(Cl)cncc2Cl)c2c1OC(C)(C)C2 (stereo not given),100 to 104

row,Structure (SMILES),melting point [°C]
1,c1ccc(CNn2cnnc2-c2ccc(CN3CCCCCC3)s2)cc1,79 to 81
2,O=c1ncc2c3c(ccc2[nH]1)OCO3,> 300
3,"CC(C(O)c1ccc(N)cc1)N1CCC(Cc2ccccc2)CC1 (single isomer, unassigned; (-))",104 to 107
4,COC(=O)[C@@H](NC(=O)c1ccc(C#Cc2ccc(C=O)cc2)cc1)[C@@H](C)O,143 to 144
5,CC(=O)Nc1cc(C(F)(F)F)cc(C(F)(F)F)c1[N+](=O)[O-],190 to 192
6,CCOC(=O)C(Cl)=Cc1cc(NC(=O)CC(C)CC(=O)O)ccc1Cl (stereo not given),82 to 84
7,CC1(C)OCC(C)(C)c2cc(OS(C)(=O)=O)ccc2O1,65 to 67
8,COc1ccc(-c2cc(=O)c3c(OC)cc(OC)c(C4=CCN(C)CC4)c3o2)cc1,179 to 181
9,O=Cc1cnc2n1CCc1ccccc1C2=C1CCN(C2CCN(C(=O)c3cc(C(F)(F)F)cc(C(F)(F)F)c3)C(Cc3ccccc3)C2)CC1 (stereo not given),126
10,COC(=O)C(O)(c1ccc(Cl)c(Cl)c1)c1ccc(Cl)c(Cl)c1,69
11,CCOC(=O)NC(=S)NCC(C)C,50 to 52
12,CCCOc1ccccc1-c1nc(NCCCO)cc(=O)[nH]1,148
13,Clc1ccc(C#Cc2ccccc2)cn1,70 to 72
14,O=C1OCCC1N1C(=O)c2cccc3cccc(c23)C1=O (stereo not given),310 to 312
15,CCN1c2ncc(CNc3cccc([N+](=O)[O-])c3)cc2C(=O)N(C)c2ccc(Cl)nc21,171 to 172
16,CCc1oc2ccc(C)cc2c1C(=O)c1ccc(Cl)c(S(N)(=O)=O)c1,147 to 150
17,O=C(O)c1cccc(C(=O)C=Cc2ccc(Cl)c(Cl)c2)c1O,> 250
18,Cc1cc(SC(C)C)c(NC(=O)CCCCCCCCSc2nc3cccc(C(F)(F)F)c3o2)c(SC(C)C)n1,97 to 98
19,ClCc1cc2ccccc2nc1I,138 to 140
20,O=C1C(c2ccccc2)=CC2CCCCCC12 (stereo not given),218
21,O=C(Nc1ccc(Oc2ccnc(NC3(CO)CCCC3)n2)c2ccccc12)c1cc(F)cc(N2CCOCC2)c1,115 to 117
22,CC1(O)c2ccccc2COc2ccc(C(=O)O)cc21 (stereo not given),258
23,Clc1ccc2c(c1)C(c1ccccc1Cl)=CCc1nncn1-2,189 to 190
24,Cc1ccc(OCCCN2CCN(c3ccc(Cl)nn3)CC2)cc1,129 to 131
25,C=C(C)CN(CC)c1nc(N2CCN(C(=O)NC(c3ccccc3)c3ccccc3)CC2)nc(N(CC)CC(=C)C)n1,178 to 180

row,Structure (SMILES),melting point [°C]
1,Cc1nnc(S(C)(=O)=O)o1,70 to 71
2,CC(C)OC(=O)Nc1ccsc1,105 to 107
3,CCOC(=O)C1=C(C)NC(C)=C(C(=O)OCCC#N)C1c1ccccc1/C=C/C(=O)OC(C)(C)C (stereo not given),168 to 169
4,CC(C)(C)OC(=O)N[C@H](Cc1ccc(Cl)c(Cl)c1)C(=O)N1CCC[C@H]1C(=O)NCC1CCc2n[nH]cc2C1 (stereo not given in full),100 to 103
5,Nc1cc(=O)n(Cc2ccccc2Cl)[nH]1,153
6,COc1ccc(C=C2C=CC(=O)O2)cc1,118 to 120
7,NC1=CC(=O)C2CCCCC2C1 (stereo not given),208 to 210
8,C=CCc1ccccc1OC[C@@H](O)CNCCc1ccc(NC2CCN(S(=O)(=O)c3ccc(N(CCCCCC)C(N)=O)cc3)CC2)cc1,68 to 70
9,O=[N+]([O-])c1ccc(OCc2ccccn2)cc1,116 to 117
10,CC(=O)c1ccc(C)c(N=C2NCCN2)c1,160 to 162
11,Cc1ccc(-c2ccc(C=Cc3ccc(Cl)cc3)s2)s1,157 to 162
12,O=C(NCCCCCCNC(=O)OC1CCCCC1)OC1CCCCC1,98 to 100
13,O=C(Nc1n[nH]c(=S)s1)NC(Cc1ccccc1)C(=O)NCCCc1ccccc1 (stereo not given),190 to 191
14,CC1CC(=O)NN=C1c1ccc2c(c1)Oc1c[nH]nc1N2 (stereo not given),304 to 306
15,Cc1c(C(=O)Nc2ccc(N3CCNCC3)c(C#N)c2)cnn1-c1ccc(F)cc1,218 to 219
16,COc1ccc(-c2nc(CCl)nc3cc(OC)c(OC)cc23)cc1OC,183 to 184
17,CC(C)(C(=O)O)n1c(=O)[nH]c2cc(F)c(F)cc2c1=O,242 to 244
18,COC[C@H]1CCCN1NC(=O)c1ccc(-c2[nH]nc3c2C(=O)c2c(NC(=O)NN4CCOCC4)cccc2-3)s1,266 to 267
19,COc1cc2c(cc1OC)/C(=N/OCc1ccc3nonc3c1)CC2,163 to 166
20,NC1CCCN(c2ncc3ncnc(Nc4ccc(F)c(Cl)c4)c3n2)C1 (stereo not given),172 to 175
21,O=c1c2cc(O)c(O)cc2c2cc(O)c(O)cc2n1CCCc1ccccc1,155 to 158
22,C[C@@H](N1CCN(c2ccc(Cl)cc2)C1=O)[C@@]1(c2ccc(F)cc2F)CO1,130 to 131
23,CC(C)Sc1ccc(NC(=O)C2(C)CC2)cc1C(F)(F)F,103 to 105
24,O=C(O)CCCC(CCCNS(=O)(=O)c1ccc(Cl)cc1)CCc1cccnc1 (stereo not given),83 to 85
25,COC(OC)c1ccc2c(c1)C(C)(C)C(=O)CC2(C)C,91 to 92

row,Structure (SMILES),melting point [°C]
1,O=Cc1ccc(OC2OC(CO)C(O)C(O)C2O)c2ccccc12 (stereo not given),< 255
2,COc1cc(C(C)C)c2c(c1)S(=O)(=O)N(COc1cc(-c3ccccc3)nn1C)C2=O,126 to 128
3,COc1cc(C(C)C#Cc2cnc(N)nc2N)cc(OC)c1OC (stereo not given),220 to 222
4,CC1CC(=O)NN=C1c1ccc2nc(C3CC3)n(Cc3ccc(-c4ccccc4-c4nnn[nH]4)cc3)c2c1 (stereo not given),216
5,COc1ccc(/C=C/C(=O)N2CC(CCl)c3c2cc([N+](=O)[O-])c2cc(S(=O)(=O)NCCO)ccc32)cc1 (stereo not given),250 to 251
6,Cc1nc2c3c(ccc2n1C)[C@@H](O)[C@H](O)[C@@H](c1ccccc1)O3,262
7,CCn1nc2c(N)nc3c(c2c1CCC1CCCCC1)CCCC3,177 to 179
8,COc1ccc2[nH]c3cc(-c4cc([N+](=O)[O-])ccc4OC)c4c(c3c2c1)C(=O)NC4=O,302 to 304
9,Cc1cc(C)nc(COCP(=O)(O)O)c1,153 to 156
10,COc1cccc2c1oc1ccccc12,49 to 50
11,Cc1nn(C)c(OC(=O)CCl)c1C(=O)c1ccc(Cl)cc1Cl,120 to 122
12,COc1cccc(C2(CC(=O)N(C)C)C=CCCC2)c1 (stereo not given),161 to 162
13,O=C(O)C1=NN(c2ccc(Cl)cc2)C(c2ccccc2)C1 (stereo not given),177 to 179
14,O=C(c1cccnc1)c1cc(-c2cccnc2)c(N2CCOCC2)s1,145
15,CC(C)(C)OC(=O)NC(C(=O)OCC(=O)c1ccccc1)c1ccc(OCC(=O)c2ccccc2)cc1 (stereo not given),125 to 126
16,Cc1nc(Nc2ccc3[nH]ccc3c2)c2sc(-c3ccccc3)cc2n1,205 to 210
17,CC(=O)NC[C@H]1CN(c2cc(F)c(N3CCC(n4nnnc4-c4ccncc4)CC3)c(F)c2)C(=O)O1,202 to 204
18,COC(=O)c1cc(N)nc(-c2ccc(Cl)c(F)c2F)n1,192 to 195
19,Cc1cc(NCCO)c([N+](=O)[O-])cc1O,174
20,Cn1c2ccccc2c(=O)c2c(-c3cccc(O)c3)c(Cl)cc(Cl)c21,220 to 222
21,CN(C)C(=O)c1nc(-c2ccccc2)nc2c1c1ccc(F)cc1n2C,229 to 231
22,COC1CCCN(Nc2nc(Cl)nc3c2ncn3C2OC(CCl)C(O)C2O)C1 (stereo not given),200 to 202
23,COC(=O)c1cc(-c2nc(COc3ccc(C=O)cc3OC)c(C)o2)ccc1C,136 to 137
24,Cc1ccc2c(c1)nnn2C(=O)N1CCOCC1,81 to 82
25,O=C1NCCc2sc3ccccc3c21,143 to 144
